Measurements published in PubChem BioAssay AID328 (DTP/NCI, 2004).
Where “and” joins values, the source holds several entries; their conditions need not be identical. Identical values can stand only once. Inconclusive results and toxic doses are left out.

System: BDF1 mice, P388 leukemia ip, median survival T/C
Assay: NCI In Vivo Anticancer Drug Screen. Data for tumor model P388 Leukemia (intraperitoneal) in B6D2F1 (BDF1) mice
Conditions: endpoint: median survival time, higher = longer survival
Summary of the method: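 Compound-treated tumour-bearing mice were compared with vehicle-treated controls. Survival was recorded, and the value is the treated-group measurement divided by the control-group measurement (T/C).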

[1] = dose: 12.5 mg/kg/injection, schedule: Q01DX009 (ip), vehicle: saline
[2] = dose: 25.0 mg/kg/injection, schedule: Q01DX009 (ip), vehicle: saline
[3] = dose: 50.0 mg/kg/injection, schedule: Q01DX009 (ip), vehicle: saline with Tween-80
[4] = dose: 50.0 mg/kg/injection, schedule: Q01DX009 (ip), vehicle: saline
[5] = dose: 100.0 mg/kg/injection, schedule: Q04DX003 (ip), vehicle: saline with Tween-80
[6] = dose: 200.0 mg/kg/injection, schedule: Q04DX003 (ip), vehicle: saline with Tween-80
[7] = dose: 100.0 mg/kg/injection, schedule: Q01DX009 (ip), vehicle: saline
[8] = dose: 200.0 mg/kg/injection, schedule: Q01DX009 (ip), vehicle: saline
[9] = dose: 100.0 mg/kg/injection, schedule: Q01DX009 (ip), vehicle: saline with Tween-80
[10] = dose: 150.0 mg/kg/injection, schedule: Q01DX009 (ip), vehicle: saline with Tween-80
[11] = dose: 6.25 mg/kg/injection, schedule: Q01DX009 (ip), vehicle: saline

SMILES: Clc1ccc2nc(CBr)cnc2c1
- T/C (dose: 12.5 mg/kg/injection, schedule: Q01DX009 (ip), vehicle: other): 104 % of control
- T/C [1]: 120 % of control
- T/C (dose: 25.0 mg/kg/injection, schedule: Q01DX009 (ip), vehicle: other): 109 % of control
- T/C [2]: 120 % of control
- T/C (dose: 25.0 mg/kg/injection, schedule: Q04DX003 (ip), vehicle: saline with Tween-80): 95 % of control
- T/C (dose: 35.0 mg/kg/injection, schedule: Q04DX003 (ip), vehicle: saline): 108 % of control
- T/C (dose: 50.0 mg/kg/injection, schedule: Q01DX009 (ip), vehicle: other): 118 % of control
- T/C [3]: 118 % of control
- T/C [4]: 110 % of control
- T/C (dose: 50.0 mg/kg/injection, schedule: Q04DX003 (ip), vehicle: saline with Tween-80): 109 % of control
- T/C (dose: 55.0 mg/kg/injection, schedule: Q04DX003 (ip), vehicle: saline): 116 % of control
- T/C (dose: 80.0 mg/kg/injection, schedule: Q04DX003 (ip), vehicle: saline): 116 % of control
- T/C [5]: 109 % of control
- T/C [6]: 103 % of control

SMILES: CCCCCCCCCCCCCCCC[N+](C)(C)C(C)c1ccc(OC)cc1 (stereo unspecified)
- T/C (dose: 6.25 mg/kg/injection, schedule: Q04DX003 (ip), vehicle: saline with Tween-80): 123 % of control

SMILES: CC[N+](CC)(CC)CCCCCCCCCC[N+](CC)(CC)CC
- T/C (dose: 0.25 mg/kg/injection, schedule: Q01DX009 (ip), vehicle: water): 91 % of control
- T/C (dose: 0.39 mg/kg/injection, schedule: Q04DX003 (ip), vehicle: water): 102 % of control and 107 % of control
- T/C (dose: 0.5 mg/kg/injection, schedule: Q01DX009 (ip), vehicle: water): 112 % of control
- T/C (dose: 0.5 mg/kg/injection, schedule: Q04DX003 (ip), vehicle: saline with Tween-80): 92 % of control
- T/C (dose: 0.78 mg/kg/injection, schedule: Q04DX003 (ip), vehicle: saline with Tween-80): 100 % of control
- T/C (dose: 0.78 mg/kg/injection, schedule: Q04DX003 (ip), vehicle: water): 98 % of control and 120 % of control
- T/C (dose: 1.0 mg/kg/injection, schedule: Q01DX009 (ip), vehicle: water): 91 % of control and 105 % of control
- T/C (dose: 1.0 mg/kg/injection, schedule: Q04DX003 (ip), vehicle: saline with Tween-80): 92 % of control
- T/C (dose: 1.56 mg/kg/injection, schedule: Q04DX003 (ip), vehicle: water): 95 % of control and 104 % of control

SMILES: O=C(Cn1ccc(O)cc1=O)N1CCC2(CC1)SSC1(CCN(C(=O)Cn3ccc(O)cc3=O)CC1)S2
- T/C [7]: 100 % of control
- T/C (dose: 100.0 mg/kg/injection, schedule: Q04DX003 (ip), vehicle: saline): 105 % of control
- T/C [8]: 100 % of control
- T/C (dose: 200.0 mg/kg/injection, schedule: Q04DX003 (ip), vehicle: saline): 116 % of control
- T/C (dose: 400.0 mg/kg/injection, schedule: Q01DX009 (ip), vehicle: saline): 95 % of control
- T/C (dose: 400.0 mg/kg/injection, schedule: Q04DX003 (ip), vehicle: saline): 122 % of control

SMILES: COC(=O)C1Cc2c([nH]c3ccccc23)CN1 (stereo unspecified)
- T/C (dose: 10.0 mg/kg/injection, schedule: Q01DX009 (ip), vehicle: saline): 116 % of control
- T/C (dose: 10.0 mg/kg/injection, schedule: Q04DX003 (ip), vehicle: saline): 95 % of control
- T/C (dose: 20.0 mg/kg/injection, schedule: Q01DX009 (ip), vehicle: saline): 100 % of control
- T/C (dose: 20.0 mg/kg/injection, schedule: Q04DX003 (ip), vehicle: saline): 109 % of control
- T/C (dose: 40.0 mg/kg/injection, schedule: Q01DX009 (ip), vehicle: saline): 112 % of control
- T/C (dose: 40.0 mg/kg/injection, schedule: Q04DX003 (ip), vehicle: saline): 95 % of control

SMILES: S=C1N=C2c3ccccc3C2C(=S)S1 (stereo unspecified)
- T/C [3]: 109 % of control
- T/C [9]: 98 % of control
- T/C [10]: 94 % of control

SMILES: CC(C)COC(=O)C1(N)CCCC1
- T/C [4]: 100 % of control
- T/C (dose: 66.0 mg/kg/injection, schedule: Q01DX009 (ip), vehicle: saline with Tween-80): 95 % of control and 108 % of control
- T/C [7]: 177 % of control
- T/C [10]: 108 % of control and 116 % of control
- T/C [8]: 95 % of control

SMILES: CCC1CN1CC1CO1 (stereo unspecified)
- T/C (dose: 8.3 mg/kg/injection, schedule: Q04DX003 (ip), vehicle: Klucel (hydroxypropylcellulose) (HPC)): 110 % of control
- T/C (dose: 12.0 mg/kg/injection, schedule: Q04DX003 (ip), vehicle: Klucel (hydroxypropylcellulose) (HPC)): 120 % of control
- T/C (dose: 29.0 mg/kg/injection, schedule: Q04DX003 (ip), vehicle: Klucel (hydroxypropylcellulose) (HPC)): 119 % of control
- T/C (dose: 200.0 mg/kg/injection, schedule: Q04DX003 (ip), vehicle: Klucel (hydroxypropylcellulose) (HPC)): 204 % of control
- T/C (dose: 300.0 mg/kg/injection, schedule: Q04DX003 (ip), vehicle: Klucel (hydroxypropylcellulose) (HPC)): 190 % of control and 218 % of control

SMILES: O=C1c2ccc(Br)cc2-c2cc(Br)ccc21
- T/C [9]: 99 % of control
- T/C (dose: 200.0 mg/kg/injection, schedule: Q01DX009 (ip), vehicle: saline with Tween-80): 106 % of control
- T/C (dose: 400.0 mg/kg/injection, schedule: Q01DX009 (ip), vehicle: saline with Tween-80): 101 % of control

SMILES: COc1ccc(N=O)c(O)c1
- T/C (dose: 25.0 mg/kg/injection, schedule: Q01DX009 (ip), vehicle: Klucel (hydroxypropylcellulose) (HPC)): 100 % of control and 109 % of control
- T/C (dose: 25.0 mg/kg/injection, schedule: Q01DX010 (ip), vehicle: carboxymethylcellulose (CMC)): 110 % of control
- T/C (dose: 25.0 mg/kg/injection, schedule: Q04DX003 (ip), vehicle: Klucel (hydroxypropylcellulose) (HPC)): 115 % of control
- T/C (dose: 50.0 mg/kg/injection, schedule: Q01DX009 (ip), vehicle: Klucel (hydroxypropylcellulose) (HPC)): 100 % of control and 109 % of control
- T/C (dose: 50.0 mg/kg/injection, schedule: Q01DX010 (ip), vehicle: carboxymethylcellulose (CMC)): 115 % of control
- T/C (dose: 50.0 mg/kg/injection, schedule: Q04DX003 (ip), vehicle: Klucel (hydroxypropylcellulose) (HPC)): 110 % of control
- T/C (dose: 100.0 mg/kg/injection, schedule: Q01DX009 (ip), vehicle: Klucel (hydroxypropylcellulose) (HPC)): 113 % of control and 118 % of control
- T/C (dose: 100.0 mg/kg/injection, schedule: Q04DX003 (ip), vehicle: Klucel (hydroxypropylcellulose) (HPC)): 110 % of control

SMILES: Cc1cc(C)c(NC(=O)c2ccccc2Cl)c(C)c1
- T/C [5]: 100 % of control
- T/C [6]: 109 % of control
- T/C (dose: 400.0 mg/kg/injection, schedule: Q04DX003 (ip), vehicle: saline with Tween-80): 95 % of control

SMILES: COc1cccnc1/C=N/NC(N)=S
- T/C (dose: 1.5 mg/kg/injection, schedule: Q01DX009 (ip), vehicle: saline with Tween-80): 115 % of control
- T/C (dose: 3.0 mg/kg/injection, schedule: Q01DX009 (ip), vehicle: saline with Tween-80): 118 % of control
- T/C (dose: 5.0 mg/kg/injection, schedule: Q01DX009 (ip), vehicle: saline with Tween-80): 157 % of control
- T/C (dose: 8.0 mg/kg/injection, schedule: Q01DX009 (ip), vehicle: saline with Tween-80): 158 % of control
- T/C (dose: 12.0 mg/kg/injection, schedule: Q01DX009 (ip), vehicle: saline with Tween-80): 158 % of control and 175 % of control

SMILES: CNC1C(O)C(NC)C2OC3(O)C(=O)CC(C)OC3OC2C1O (stereo unspecified)
- T/C [11]: 112 % of control
- T/C [1]: 106 % of control
- T/C [2]: 97 % of control
- T/C [4]: 106 % of control

SMILES: CCCCCCCCCCCCSCCSCCSCCCCCCCCCCCC
- T/C (dose: 100.0 mg/kg/injection, schedule: Q01DX001 (ip), vehicle: saline with Tween-80): 95 % of control
- T/C (dose: 200.0 mg/kg/injection, schedule: Q01DX001 (ip), vehicle: saline with Tween-80): 95 % of control
- T/C (dose: 400.0 mg/kg/injection, schedule: Q01DX001 (ip), vehicle: saline with Tween-80): 90 % of control

SMILES: O=C1C=C(Nc2ccc(O)cc2)c2ccccc2C1=O
- T/C [11]: 95 % of control
- T/C [1]: 104 % of control
- T/C [2]: 100 % of control

SMILES: CC(=O)[O][Hg][c]1c(N)c(C)cc(C)c1F
- T/C (dose: 0.78 mg/kg/injection, schedule: Q01DX009 (ip), vehicle: saline): 93 % of control
- T/C (dose: 1.56 mg/kg/injection, schedule: Q01DX009 (ip), vehicle: saline): 95 % of control
- T/C (dose: 3.12 mg/kg/injection, schedule: Q01DX009 (ip), vehicle: saline): 93 % of control
- T/C [11]: 95 % of control
- T/C [1]: 95 % of control

SMILES: O=S(=O)(Nc1ccccc1Cl)c1ccccc1
- T/C (dose: 100.0 mg/kg/injection, schedule: Q04DX003 (ip), vehicle: gum acacia): 111 % of control
- T/C (dose: 200.0 mg/kg/injection, schedule: Q04DX003 (ip), vehicle: gum acacia): 96 % of control
- T/C (dose: 400.0 mg/kg/injection, schedule: Q04DX003 (ip), vehicle: gum acacia): 111 % of control
